Measured values reported in article PMC8588310, “Identification and Preliminary Structure-Activity Relationship Studies of 1,5-Dihydrobenzo[e][1,4]oxazepin-2(3H)-ones That Induce Differentiation of Acute Myeloid Leukemia Cells In Vitro” (Molecules, 2021).
≈ marks a conversion by molar mass, not a printed value.

Key:
HL-60 cells = experiment: CD11b expression assay by flow cytometry in HL-60 cells; type: cell-based, human; details: for Activity in the CD11b assay / EC50: HL-60 cells; for Activity in the CD11b assay: concentration-response; for EC50: Homo sapiens, HL-60, 96 h, 4-day (96 h) treatment, CD11b upregulation, read-out: EC50 [nM], %CD11b response in HL60 cells; for LipE (lipophilic efficiency): LipE = -LogEC50-cLogP, EC50 of CD11b assay in HL-60
Method: Cells were treated with 1000 structurally diverse small molecules selected from a commercial library. A single point testing concentration of 10 µM was used. After 4 days, cells were stained with a CD11b antibody and analysed using flow cytometry. Compounds upregulating CD11b expression greater than 10% in at least three of the cell lines were considered as potential hits. Hit confirmation was undertaken as follows: first, the hit was re-tested at 10 µM both with the CD11b antibody and an isotype control to account for nonspecific binding. Secondly, the effect of the hit on cell proliferation and viability was evaluated through staining with DAPI to evaluate the number of dead cells, and with acridine orange to detect total cell numbers. Thirdly, the induction of differentiation caused by the compounds was confirmed through morphology assessment with Giemsa staining. Finally, the molecule was resynthesised and fully characterised to confirm structural authenticity. This fresh sample was then retested in the CD11b assay to generate a concentration-response curve. The study of proliferation and morphology was performed on a panel of six cell lines: HL-60, THP-1, OCI-AML3, KG-1, Kasumi-1 and ME-1.
Thus, structure-activity relationship studies were initiated, where the potency of the new analogues was evaluated through concentration-response testing using the CD11b assay in HL-60 cells. Lipophilic efficiency (LipE), which also accounts for lipophilicity, was also used to compare the quality of the analogues. Even though multiple parameters can influence activity in a cell-based assay, LipE is a useful guide to compare analogues.
PE mouse-anti-human-CD11b/Mac-1 (ICRF44, Cat 555388) and PE-mouse-IgG1-κ-isotype control (MOPC-21, Cat 555749) were purchased from BD Bioscience. Cells were suspended in 100 μL growth media (RPMI + 10% FBS + 1% L-glutamine) at a density of 2 × 10^4 cells/well of a V-bottom 96 well plate (Corning, Cat 3894) and grown for 96 h in the presence of compound at the required concentration. After 96 h, the plate was centrifuged, media was removed, and cells were resuspended in 50 µL of blocking buffer (IMDM, no phenol red + 10% FBS) containing 2.5 μL of either CD11b or isotype control antibody and incubated on ice in the dark for 20 min. Cells were washed twice in 200 μL of staining buffer (IMDM, no phenol red + 1% FBS) before being resuspended in 200 μL of staining buffer containing 1 μg/mL of DAPI to help identify dead cells. Flow cytometry data were collected on an Attune NxT and analysed using the Attune NxT software (Life Technologies).

[1] = Semi-thermodynamic aqueous solubility; type: physicochemical; details: thermodynamic from solid
Method: (§1) Determination of semi-thermodynamic solubility, metabolic stability in S9 fraction, Caco-2 permeability and PPB were performed by Cyprotex Ltd. (www.cyprotex.com, accessed on 22 October 2021) using their standard assays and as described on their website.

[2] = Single dose PK study in male CD-1 mice; type: in vivo, mouse
Excerpt: In order to undertake a preliminary assessment of the pharmacokinetic (PK) profile of this compound class, three compounds were deemed to have sufficient intrinsic potency, solubility and in vitro metabolic stability properties to progress into a single dose in vivo PK study. […] […] […] Nonetheless, the clearance of the three compounds was high to moderate, and at this dose the in vitro EC50 was not reached.
Male CD-1 mice were used for the PK studies, with three for each treatment. […] Blood concentration was measured by LC-MS/MS over 24 h.

[3] = Metabolic stability in mouse S9 fraction; type: in vitro ADME; details: ER = Clint/species flow rate (mice: 90 mL/min/kg)
Method: as §1
[22] Extraction ratio (ER) is calculated as the measured intrinsic clearance over the hepatic blood flow of each species (90 mL/min/kg for mice). It has the advantage over other parameters (half-life, clearance) that it is independent of the species used

[4] = aqueous (buffer or water not specified)
[5] = mouse, whole blood, single dose 3 mg/kg po, blood
[6] = aqueous medium (buffer not specified)
[7] = aqueous (not further specified)

SMILES	Activity in the CD11b assay (HL-60 cells)	EC50 (HL-60 cells) [nM]	LipE (lipophilic efficiency) (HL-60 cells)	ER in mS9 (extraction ratio) [3]	also measured
CC(C)N1C(=O)COCc2ccc(-c3cccc(S(C)(=N)=O)c3)cc21 (stereo not drawn) [Compound 27, 1-Isopropyl-8-(3-(S-methylsulfonimidoyl)phenyl)-1,5-dihydrobenzo[e][1,4]oxazepin-2(3H)-one]	removed the activity	> 30000			
CC(C)N1C(=O)COCc2ccc(-c3cccc(NS(=O)(=O)C(F)(F)F)c3)cc21 [Compound 34, 1,1,1-Trifluoro-N-(3-(1-isopropyl-2-oxo-1,2,3,5-tetrahydrobenzo[e][1,4]oxazepin-8-yl)phenyl)methanesulfonamide]		> 10000			
CS(=O)(=O)Nc1cccc(-c2ccc3c(c2)N(c2ccccc2)C(=O)COC3)c1 [Compound 14, N-(3-(2-Oxo-1-phenyl-1,2,3,5-tetrahydrobenzo[e][1,4]oxazepin-8-yl)phenyl)methanesulfonamide]		220	3.9		solubility thermodynamic [1, 4]: 14 µM (≈ 5.72 µg/mL); bioavailability ([2]; mouse, whole blood, 3 mg/kg po vs 0.33 mg/kg iv): 15%; half-life ([2]; mouse, whole blood, single dose 3 mg/kg po and 0.33 mg/kg iv, blood, route of parameter not given): 4.1 h; Cmax [2, 5]: 44 ng/mL; Tmax [2, 5]: 1.2 h; Vd/F ([2]; mouse, whole blood, single dose 3 mg/kg po, blood, read-out: Vz/F): 100 L/kg; Clobs ([2]; single dose 0.33 mg/kg iv, blood): 43 mL/min/kg; Clobs/F ([2]; single dose 3 mg/kg po, blood): 286 mL/min/kg; Clearance ([2]; single dose iv 0.33 mg/kg and po 3 mg/kg): lowest clearance
CC(C)N1C(=O)COCc2ncc(-c3cccc(NS(C)(=O)=O)c3)cc21 [Compound 42, N-(3-(1-Isopropyl-2-oxo-1,2,3,5-tetrahydropyrido[3,2-e][1,4]oxazepin-8-yl)phenyl)methanesulfonamide]	retained weak activity	2200	4.9	0.09	solubility thermodynamic [1, 6]: > 200 µM
CC(C)CN1C(=O)COCc2ccc(-c3cccc(NS(C)(=O)=O)c3)cc21 [Compound 10, N-(3-(1-Isobutyl-2-oxo-1,2,3,5-tetrahydrobenzo[e][1,4]oxazepin-8-yl)phenyl)methanesulfonamide]		740	4.0	0.51	solubility thermodynamic [1, 4]: > 200 µM
CCCS(=O)(=O)Nc1cccc(-c2ccc3c(c2)N(C(C)C)C(=O)COC3)c1 [Compound 33, N-(3-(1-Isopropyl-2-oxo-1,2,3,5-tetrahydrobenzo[e][1,4]oxazepin-8-yl)phenyl)propane-1-sulfonamide]		6800	2.5		Decrease in potency compared to OXS007002 (HL-60 cells; CD11b EC50 in HL-60, vs OXS007002): 10 fold
COc1cccc(-c2ccc3c(c2)N(C(C)C)C(=O)COC3)c1 [Compound 31, 1-Isopropyl-8-(3-methoxyphenyl)-1,5-dihydrobenzo[e][1,4]oxazepin-2(3H)-one]		> 10000			
CC(C)N1C(=O)COCc2ccc(Oc3cccc(NS(C)(=O)=O)c3)cc21 [Compound 40, N-(3-((1-Isopropyl-2-oxo-1,2,3,5-tetrahydrobenzo[e][1,4]oxazepin-8-yl)oxy)phenyl)methanesulfonamide]	abolished activity	> 30000			
CC(C)N1C(=O)COCc2ccc(-c3cccc(C(=O)O)c3)cc21 [Compound 32, 3-(1-Isopropyl-2-oxo-1,2,3,5-tetrahydrobenzo[e][1,4]oxazepin-8-yl)benzoic acid]		> 30000			
COc1cc(NS(C)(=O)=O)cc(-c2ccc3c(c2)N(C(C)C)C(=O)COC3)c1 [Compound 38, N-(3-(1-Isopropyl-2-oxo-1,2,3,5-tetrahydrobenzo[e][1,4]oxazepin-8-yl)-5-methoxyphenyl)methanesulfonamide]		> 30000			
CS(=O)(=O)Nc1cccc(-c2ccc3c(c2)N(C2COC2)C(=O)COC3)c1 [Compound 13, N-(3-(1-(Oxetan-3-yl)-2-oxo-1,2,3,5-tetrahydrobenzo[e][1,4]oxazepin-8-yl)phenyl)methanesulfonamide]		> 10000		0.08	solubility thermodynamic [1, 4]: 10 µM (≈ 3.88 µg/mL)
CN1C(=O)COCc2ccc(-c3cccc(NS(C)(=O)=O)c3)cc21 [Compound 7, N-(3-(1-Methyl-2-oxo-1,2,3,5-tetrahydrobenzo[e][1,4]oxazepin-8-yl)phenyl)methanesulfonamide]	completely inactive	> 30000		0.07	solubility thermodynamic [1, 4]: > 200 µM
CS(=O)(=O)Nc1cccc(-c2ccc3c(c2)NC(=O)COC3)c1 [Compound 6, N-(3-(2-Oxo-1,2,3,5-tetrahydrobenzo[e][1,4]oxazepin-8-yl)phenyl)methanesulfonamide]	completely inactive	> 10000			solubility thermodynamic [1, 4]: > 200 µM
COC(=O)Nc1cccc(-c2ccc3c(c2)N(C(C)C)C(=O)COC3)c1 [Compound 28, Methyl (3-(1-isopropyl-2-oxo-1,2,3,5-tetrahydrobenzo[e][1,4]oxazepin-8-yl)phenyl)carbamate]	equally active	500	3.7	0.31	solubility thermodynamic [1, 7]: 88 µM (≈ 31.2 µg/mL)
CC(C)N1C(=O)COCc2ccc(-c3ccc(F)c(NS(C)(=O)=O)c3)cc21 [Compound 35, N-(2-Fluoro-5-(1-isopropyl-2-oxo-1,2,3,5-tetrahydrobenzo[e][1,4]oxazepin-8-yl)phenyl)methanesulfonamide]		1600	4.0	0.21	solubility thermodynamic [1, 7]: > 200 µM
Cc1ccc(-c2ccc3c(c2)N(C(C)C)C(=O)COC3)cc1NS(C)(=O)=O [Compound 36, N-(5-(1-Isopropyl-2-oxo-1,2,3,5-tetrahydrobenzo[e][1,4]oxazepin-8-yl)-2-methylphenyl)methanesulfonamide]		600	4.1	1	solubility thermodynamic [1, 7]: > 200 µM
CS(=O)(=O)Nc1cccc(-c2ccc3c(c2)N(CC2CC2)C(=O)OC3)c1 [Compound 41, N-(3-(1-(Cyclopropylmethyl)-2-oxo-1,4-dihydro-2H-benzo[d][1,3]oxazin-7-yl)phenyl)methanesulfonamide]		15000	2.5	0.54	Loss in activity compared to OXS003976 (HL-60 cells; CD11b EC50 in HL-60, vs OXS003976): 15 fold; solubility thermodynamic [1, 6]: 77 µM (≈ 28.7 µg/mL)
CC(C)N1C(=O)COCc2ccc(-c3ccc(NS(C)(=O)=O)cc3)cc21 [Compound 26, N-(4-(1-Isopropyl-2-oxo-1,2,3,5-tetrahydrobenzo[e][1,4]oxazepin-8-yl)phenyl)methanesulfonamide]		> 30000			
CC(C)N1C(=O)COCc2ccc(-c3cncc(NS(C)(=O)=O)c3)cc21 [Compound 39, N-(5-(1-Isopropyl-2-oxo-1,2,3,5-tetrahydrobenzo[e][1,4]oxazepin-8-yl)pyridin-3-yl)methanesulfonamide]	abolished activity	> 30000			
CC(C)N1C(=O)COCc2ccc(-c3cccc(N)c3)cc21 [Compound 29, 8-(3-Aminophenyl)-1-isopropyl-1,5-dihydrobenzo[e][1,4]oxazepin-2(3H)-one]		3300	3.5		
CC(C)N1C(=O)COCc2ccc(-c3cccc(N(C)C)c3)cc21 [Compound 30, 8-(3-(Dimethylamino)phenyl)-1-isopropyl-1,5-dihydrobenzo[e][1,4]oxazepin-2(3H)-one]		12000	2.4		
